The values that follow come from publication PMC11705763, “Tumor-associated antigen prediction using a single-sample gene expression state inference algorithm” (Cell Reports Methods, 2024).

Experiment [1] concerns CD8+ T cell cultures / PBMCs from healthy donors. In words: IFN-gamma ELISpot assay.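 As to Donor2 value: Spot-forming units per 100000 cells.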 It counts as cell-based, human. The arrangement: Donor1_value / Donor3_value / Donor4_value: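 Spot-forming units per 100000 cells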. The note with it: IFN-gamma ELISpot result. The text has this: We experimentally assessed the binding affinity of the 38 peptides through a competitive peptide binding assay (STAR Methods). […] Subsequently, we investigated the immunogenicity of these peptides using an interferon (IFN)-gamma ELISpot assay (STAR Methods). […] These peptides represent promising candidates for further investigation as potential immunotherapy targets. Peripheral blood mononuclear cells (PBMCs) from healthy donors were isolated at Zhongshan Hospital, Fudan University using Lymphoprep (07851, Stemcell) and cultured with ImmunoCult-XF T cell Expansion Medium (10981, Stemcell) supplemented with human recombinant IL-2 (78036, Stemcell). ImmunoCult Human CD3/CD28 T cell Activator (10971, Stemcell) was added to the cell suspension, which was then incubated for 3 days. Subsequent expansion of the cell suspension was carried out every two days as per manufacturer's instructions. The entire process was approved by the Institutional Review Board of Zhongshan Hospital, Fudan University (B2024-412). ELISPOT plates (2110003, […]) were pretreated with PBS before dispensing cell suspensions (nearly 1×10^5 cells) with synthesized peptide (10 μg/mL) into each well. After incubation at 37°C in a CO2 incubator for 20 h, plates were washed and incubated with anti-human IFN-γ followed by Streptavidin-HRP. Staining of Streptavidin-HRP was performed using AEC solution, and the reaction was stopped by rinsing with cold tap water. ELISPOT plates were scanned and counted using an ImmunoSpot plate reader and associated software from Cellular Technologies, Ltd.

A further experiment concerns the target HLA-A02:01 (Homo sapiens, UniProt P04439, D140Y/D185E/D98H/E176V/E277Q/G131W/G231S/I119V/I121R/I166T/I218V/L300P/L318F/N151K/N90K/P208A/P217A/Q86G/Q94H/R138H/R169H/T345S). In words: Peptide-MHC tetramer exchange assay (competitive peptide binding, QuickSwitch Quant HLA-A02:01 tetramer). The note with it: percentage of replacement of the exchangeable peptide by the test peptide.

FLLLVDAAV registered a Donor1_value in experiment [1] (healthy donor 1) of 571. In experiment [1] (healthy donor 2), this sequence registered a Donor2_value of 34. For the same sequence, the Donor3_value in experiment [1] (healthy donor 3) worked out at 0. Further, the Donor4_value in experiment [1] (healthy donor 4) amounted to 12. The Q1_Replacement_Percentage on HLA-A02:01 is on record as 83.5%.
